In US7402593B2 (priority 2004, dated 2008):

Tests used:
[1] = compared with other PPIs such as omeprazole or lansoprazole; cited from earlier work
in vivo = conditions: dog, plasma, po, 50 mg/kg

Row | Compound | solubility (solubility in water; water) | half-life in plasma relative to other PPIs [1] | AUC(0-t) (in vivo) | Cmax (in vivo) | Tmax (in vivo) | highest concentration of solution obtainable (solubility in water; room temperature)
1 | COc1ccc2[nH]c([S+]([O-])Cc3ncc(C)c(OC)c3C)nc2n1 (racemic) [racemic tenatoprazole, 5-methoxy-2-[ [(4-methoxy-3,5-dimethyl-2-pyridyl)methyl]sulfinyl]imidazo[4,5-b]pyridine] | < 1 mg/mL | approximately seven times longer | 156 µg·h/mL | 0.0502 µg/mL | 1.5 h | –
2 | COc1ccc2nc([S+]([O-])Cc3ncc(C)c(OC)c3C)[n-]c2n1.[Na+] (racemic) [sodium salt of racemic tenatoprazole] | – | – | – | – | – | ≤ 19 g/L
